Measurements from patent US20260083769A1, “2-Aminopropane-1,3-Diol-Capped Cationic Peptoids for Nucleic Acid Delivery” (NUTCRACKER THERAPEUTICS, INC., priority 2022, published 2026).
Entries after “also recorded” stand apart in the source; their conditions may differ. Where two headings read alike, the source gives them in different places. Where a SMILES comes first, the peptide text is derived from it. [ ]: non-standard residue; d: D form. N(2-ethylhexyl)Gly = CCCCC(CC)CNCC(=O)O; Gly(N-dodecyl) = CCCCCCCCCCCCNCC(=O)O; N(CH(CH2OH)2)Gly = O=C(O)CNC(CO)CO; NHexGly = CCCCCCNCC(=O)O

Assays:
[1] = RBC hemolysis as metric for fusogenicity; type: cell-based; settings: sheep red blood cells (RBCs), 5% v/v, Table 5, delivery vehicle, 37° C. 45 min
Procedure, shortened: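 Sheep RBCs at 5% v/v in 20 mM citrate/140 mM NaCl pH 5.5 or PBS, exposed to LNPs at […] in well, 37 °C for 45 min. Supernatant absorbance at 425 nm; % hemolysis normalized to 2% Triton full lysis and buffer-only control.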

[2] = Apparent particle pKa, TNS fluorescence assay; type: physicochemical; settings: Table 5; apparent particle pKa of delivery vehicle
Description: The apparent particle pKa was assessed by a TNS fluorescence assay. Briefly, particles were diluted to 130 uM total lipid in TNS buffer ranging in pH 3-11 for 10 minutes with […] of TNS probe. The fluorescence was measured at room temperature in a plate reader ex 320/em 445. Fluorescence intensity was normalized to the minimal and maximal values and the pKa was determined by a 3 parameter fit to determine the half maximum of the curve.

[3] = Percent encapsulated mRNA, RiboGreen assay; type: physicochemical; settings: Table 5; delivery vehicle comprising the peptoid, Formulation D22, fLuc mRNA
Procedure, shortened: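 Modified RiboGreen fluorescence assay on Fluc mRNA formulations diluted to 500 ng/ml in Tris-EDTA. Samples were read with and without Triton X-100 lysis (2% for 10 min in one protocol). Percent encapsulation was derived from the fluorescence ratio of intact versus lysed particles.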

BALB/c mice = assay: Serum anti-RSV antibody (aRSV) after IV dose of aRSV mRNA delivery vehicles, IgG ELISA; type: in vivo; settings: for secreted protein (serum aRSV) expression in vivo, comparison of monomer order isomers: Compound 31 versus Compound 41; for serum levels of aRSV (secreted protein expression): BALB/c mice, IV, 0.75 mg/kg mRNA, after 24 hours, IgG ELISA
Description: For imaging studies, female BALB/c mice (6-8 weeks old) were obtained and acclimatized for a minimum of 3 days prior to experiments. The animals were maintained on a 12 hour light cycle in a temperature and humidity controlled room. A daily health check was performed as well as food and water check. For dosing, mice were injected with 2.5 μg fLuc mRNA-containing delivery vehicles intravenously in 100 μL total injection volume. At 6 hours post-injection, mice were anesthetized with isoflurane, and injected intraperitoneally with 30 mg/mL D-luciferin at a dose of 10 μL per gram bodyweight intraperitoneally. Imaging was done 10 minutes post D-luciferin injection using an IVIS® Spectrum Imaging System. Immediately after in vivo imaging, mice were terminally bled by cardiac puncture and euthanized. The organs of interest were harvested, placed in black 24-well plates, and imaged. Living Image® software was used to quantify the total photon flux in regions of interest. For secreted protein studies, mice were injected with aRSV mRNA-containing delivery vehicles intravenously in 100 μL total injection volume. Mice were euthanized after 24 hours, with serum collection at 6 and 24 hours post-injection. Serum was used to quantify secreted aRSV levels using ELISA following the manufacturer's recommendation for IgG using a standard curve generated from aRSV protein.
To understand how the delivery vehicles disclosed herein (e.g., delivery vehicles comprising compounds of Formula (I)) performed as systemic delivery vehicles, the top four candidates for firefly luciferase expression from the optimized DOE model (Compounds 12, 41, 34, and 35) were evaluated for their ability to produce anti-RSV antibody in BALB/c mice. Anti-RSV was chosen as a model target due to the availability of therapeutic benchmarking information and sequence availability. Delivery vehicles comprising aRSV were formulated from two mRNA molecules encoding the heavy and light chain at a 2:1 mass ratio. All delivery vehicles were below 120 nm in size with encapsulation greater than 85% (Table 7).
Delivery vehicles were dosed intravenously in BALB/c mice at a total dose of 0.75 mg/kg mRNA and serum levels of aRSV were compared after 24 hours by an IgG ELISA.

[4] = Zeta potential of delivery vehicles; type: physicochemical; settings: Table 5; delivery vehicle, pH 7 buffer; in mV (unit assumed)
[5] = Particle size and polydispersity (PDI) of delivery vehicles by dynamic light scattering; type: physicochemical; settings: Table 5; delivery vehicle comprising the peptoid, Formulation D22, fLuc mRNA
Procedure, shortened: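 Delivery vehicle complexes were diluted in PBS to 2 ng/μL and measured by DLS. The cumulant fit of the correlation function gave PDI and hydrodynamic diameter in nm.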

[6] = pH 5, read-out: Hemolysis at pH 5
[7] = pH 7, read-out: Hemolysis at pH 7

Compound | hemolysis at 45 min, 150 mM total lipid [1, 6] | hemolysis at 45 min, 150 mM total lipid [1, 7] | pKa (TNS) [2] | % Encapsulation [3] | secreted protein (serum aRSV) expression in vivo, comparison of monomer order isomers (BALB/c mice) | Zeta Potential [4] | PDI [5] | Particle Size (nm) [5] | serum levels of aRSV (secreted protein expression) (BALB/c mice) | serum levels of aRSV (secreted protein expression) (BALB/c mice; 0.75 mg/kg) | dependence of serum aRSV titers on injected dose (BALB/c mice; Compound 41 in Formulation D22, 0.3, 0.75, and 1.5 mg/kg) | time aRSV titers were observed in the serum (BALB/c mice; Compound 41 in Formulation D22, mice, post-dosing)
CCCCCCCCCCCCN(CC(=O)N(CC(=O)N(CC(=O)N(CCCCCCCCCCCC)CC(=O)N(CC(=O)N(CC(N)=O)CC(CC)CCCC)CC(CC)CCCC)CC(CC)CCCC)CC(CC)CCCC)C(=O)CNC(CO)CO (centres unmarked) [Compound 31] (H-[N(CH(CH2OH)2)Gly][Gly(N-dodecyl)][N(2-ethylhexyl)Gly][N(2-ethylhexyl)Gly][Gly(N-dodecyl)][N(2-ethylhexyl)Gly][N(2-ethylhexyl)Gly]-NH2) | 5.8% | 2% | 6.523 | 86.9% | within error | −11.2 | 0.1 | 80.8 nm | – | – | – | –
CCCCCCN(CC(N)=O)C(=O)CN(CC(CC)CCCC)C(=O)CN(CC(CC)CCCC)C(=O)CN(CCCCCC)C(=O)CN(CC(CC)CCCC)C(=O)CN(CC(CC)CCCC)C(=O)CNC(CO)CO (centres unmarked) [Compound 12] (H-[N(CH(CH2OH)2)Gly][N(2-ethylhexyl)Gly][N(2-ethylhexyl)Gly][NHexGly][N(2-ethylhexyl)Gly][N(2-ethylhexyl)Gly][NHexGly]-NH2) | 52.1% | 1.5% | 6.018 | 97.4% | – | −8.68 | 0.32 | 91.4 nm | lowest aRSV expression of the top 4 candidates | – | – | –
CCCCCCCCCCCCN(CC(=O)N(CC(=O)N(CC(=O)N(CCCCCCCCCCCC)CC(=O)N(CC(N)=O)CC(CC)CCCC)CC(CC)CCCC)CC(CC)CCCC)C(=O)CN(CC(CC)CCCC)C(=O)CNC(CO)CO (centres unmarked) [Compound 41] (H-[N(CH(CH2OH)2)Gly][N(2-ethylhexyl)Gly][Gly(N-dodecyl)][N(2-ethylhexyl)Gly][N(2-ethylhexyl)Gly][Gly(N-dodecyl)][N(2-ethylhexyl)Gly]-NH2) | 4.5% | 2.9% | 6.068 | 94.2% | within error | −5.38 | 0.15 | 75.7 nm | – | highest levels of secreted protein expression; also recorded: highest overall aRSV titers | generally linear dependence on injected dose | > 5 days
CCCCCCCCCCCCN(CC(=O)N(CC(N)=O)CC(CC)CCCC)C(=O)CN(CCCCCC)C(=O)CN(CC(CC)CCCC)C(=O)CN(CCCCCCCCCCCC)C(=O)CN(CCCCCC)C(=O)CNC(CO)CO (centres unmarked) [Compound 34] (H-[N(CH(CH2OH)2)Gly][NHexGly][Gly(N-dodecyl)][N(2-ethylhexyl)Gly][NHexGly][Gly(N-dodecyl)][N(2-ethylhexyl)Gly]-NH2) | 11.8% | 27.6% | 6.374 | 71.2% | – | −9.58 | 0.093 | 118.4 nm | highest levels of secreted protein expression | – | – | –
